Tests used:
BTK wildtype protein = BTK wildtype protein (Homo sapiens (Human), UniProt Q06187); assay: BTK wildtype HTRF displacement assay; format: binding; settings: 1-hour incubation; read-out: BTK (wt) IC50
How it was run: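 Full-length N-terminal GST-tagged BTK incubated 1 h at room temperature with compound (6 doses, four-fold dilutions from 5 μM top) plus kinase tracer 239 and anti-GST-Tb antibody. Tracer displacement read as TR-FRET 665/620 ratio, background-subtracted using no-protein control. IC50 from four-parameter fit constrained 0–100% inhibition.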

BTK C481S protein = BTK C481S protein (Homo sapiens (Human), UniProt Q06187, C481S); assay: BTK C481S HTRF displacement assay; format: binding; settings: 1-hour incubation
How it was run: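 N-terminal GST-tagged BTK C481S (2-659) incubated 1 hour at room temperature with compound (6 doses, four-fold from 5 μM), 50 nM kinase tracer 239 and anti-GST-Tb antibody. TR-FRET 665/620 ratio, background-subtracted; IC50 from constrained four-parameter fit. KI=IC50/(1+[Tracer]/Kd), tracer Kd 54 nM.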

BTK wildtype protein, sequence (Q06187 2-659): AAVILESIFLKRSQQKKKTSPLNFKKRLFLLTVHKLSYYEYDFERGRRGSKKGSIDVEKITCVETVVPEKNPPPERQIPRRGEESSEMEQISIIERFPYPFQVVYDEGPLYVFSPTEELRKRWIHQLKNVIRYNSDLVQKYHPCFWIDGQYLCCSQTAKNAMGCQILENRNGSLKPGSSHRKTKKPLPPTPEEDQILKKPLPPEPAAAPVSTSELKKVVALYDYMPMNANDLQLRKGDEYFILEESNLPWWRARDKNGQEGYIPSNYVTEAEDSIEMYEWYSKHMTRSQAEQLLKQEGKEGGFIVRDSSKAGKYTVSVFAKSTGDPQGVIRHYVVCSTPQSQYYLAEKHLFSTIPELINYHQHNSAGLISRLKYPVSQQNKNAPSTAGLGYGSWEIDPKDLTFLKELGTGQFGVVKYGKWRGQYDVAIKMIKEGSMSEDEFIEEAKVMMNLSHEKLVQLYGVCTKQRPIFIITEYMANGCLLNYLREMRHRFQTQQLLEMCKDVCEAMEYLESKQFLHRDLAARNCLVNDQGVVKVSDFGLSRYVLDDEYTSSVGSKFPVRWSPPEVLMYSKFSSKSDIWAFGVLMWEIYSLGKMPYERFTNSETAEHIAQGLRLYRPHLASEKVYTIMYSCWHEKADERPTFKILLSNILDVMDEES
BTK C481S protein, sequence (Q06187 2-659 C481S): as the sequence (Q06187 2-659) above, with C480S counted along it

Row | Structure (SMILES) | IC50 (BTK wildtype protein) [µM] | IC50 (BTK C481S protein) [µM]
1 | CC[C@@H](Cn1nc(-c2ccc(CNC(=O)c3cc(F)ccc3OC)cc2)c2c(N)ncnc21)N(C)C(=O)n1cncn1 [Compound 204, (S)-N-(1-(4-amino-3-(4-((5-fluoro-2-methoxybenzamido)methyl)phenyl)-1H-pyrazolo[3,4-d]pyrimidin-1-yl)butan-2-yl)-N-methyl-1H-1,2,4-triazole-1-carboxamide] | ≤ 1 | ≤ 1
2 | COc1ccc(F)cc1C(=O)NCc1ccc(-c2nn(CC3CCN3C(=O)n3cncn3)c(N)c2C(N)=O)cc1 (centres unmarked) [Compound 145, 1-((1-(1H-1,2,4-triazole-1-carbonyl)azetidin-2-yl)methyl)-5-amino-3-(4-((5-fluoro-2-methoxybenzamido)methyl)phenyl)-1H-pyrazole-4-carboxamide] | ≤ 1 | ≤ 1
3 | COc1ccc(F)cc1C(=O)NCc1ccc(-c2nn(C(CC3CC3)CN(C)C(=O)n3cncn3)c3ncnc(N)c23)cc1 (centres unmarked) [Compound 127, N-(4-(4-amino-3-(4-((5-fluoro-2-methoxybenzamido)methyl)phenyl)-1H-pyrazolo[3,4-d]pyrimidin-1-yl)-3-cyclopropylpropyl)-N-methyl-1H-1,2,4-triazole-1-carboxamide] | > 1 | > 1
4 | COc1ccc(F)cc1C(=O)NCc1ccc(-c2nn(CC3CCCCC3N(C)C(=O)n3cncn3)c3ncnc(N)c23)cc1 (centres unmarked) [Compound 126, N-(2-((4-amino-3-(4-((5-fluoro-2-methoxybenzamido)methyl)phenyl)-1H-pyrazolo[3,4-d]pyrimidin-1-yl)methyl)cyclohexyl)-N-methyl-1H-1,2,4-triazole-1-carboxamide] | ≤ 1 | ≤ 1
5 | COc1ccc(F)cc1C(=O)NCc1ccc(-c2nn([C@H]3CC[C@H](N(C)C(=O)n4cncn4)C3)c3ncnc(N)c23)cc1 [Compound 312, N-((1S,3S)-3-(4-amino-3-(4-((5-fluoro-2-methoxybenzamido)methyl)phenyl)-1H-pyrazolo [3,4-d]pyrimidin-1-yl)cyclopentyl)-N-methyl-1H-1,2,4-triazole-1-carboxamide] | ≤ 1 | ≤ 1
6 | NC(=O)c1c(-c2ccc(Oc3ccccc3)cc2)nn2c1NCCC2C1CCCN(C(=O)n2cncn2)C1 (centres unmarked) [Compound 207, 7-(1-(1H-1,2,4-triazole-1-carbonyl)piperidin-3-yl)-2-(4-phenoxy-phenyl)-4,5,6,7-tetrahydro-pyrazolo[1,5-a]pyrimidine-3-carboxamide] | ≤ 1 | ≤ 1
7 | Nc1ncnc2c1c(-c1ccc(Oc3ccccc3)cc1)nn2CC1CCCCN1C(=O)n1cncn1 (centres unmarked) [Compound 267, (2-((4-amino-3-(4-phenoxyphenyl)-1H-pyrazolo[3,4-d]pyrimidin-1-yl)methyl)piperidin-1-yl)(1H-1,2,4-triazol-1-yl)methanone] | ≤ 1 | ≤ 1
8 | COc1ccc(C)cc1C(=O)NCc1ccc(-c2nn(C3CCC(N(C)C(=O)n4cncn4)C3)c3ncnc(N)c23)cc1 (centres unmarked) [Compound 275, N-(3-(4-amino-3-(4-((2-methoxy-5-methylbenzamido)methyl)phenyl)-1H-pyrazolo[3,4-d]pyrimidin-1-yl)cyclopentyl)-N-methyl-1H-1,2,4-triazole-1-carboxamide] | ≤ 1 | ≤ 1
9 | COc1ccc(F)cc1C(=O)NCc1ccc(-c2nn(C[C@H]3CCCN3C(=O)n3cncn3)c3ncnc(N)c23)cc1 [Compound 292, (R)-N-(4-(1-((1-(1H-1,2,4-triazole-1-carbonyl)pyrrolidin-2-yl)methyl)-4-amino-1H-pyrazolo[3,4-d]pyrimidin-3-yl)benzyl)-5-fluoro-2-methoxybenzamide] | ≤ 1 | ≤ 1
10 | CC(C)[C@H](C1CCNc2c(C(N)=O)c(-c3ccc(Oc4ccccc4)cc3)nn21)N(C)C(=O)n1cncn1 (stereo partly drawn) [Compound 242, 7-((R)-2-methyl-1-(N-methyl-1H-1,2,4-triazole-1-carboxamido)propyl)-2-(4-phenoxyphenyl)-4,5,6,7-tetrahydropyrazolo[1,5-a] pyrimidine-3-carboxamide] | > 1 | > 1
11 | COc1ccc(F)cc1C(=O)NCc1ccc(-c2nn(C3CCC(CN(C)C(=O)n4cncn4)C3)c3ncnc(N)c23)cc1 (centres unmarked) [Compound 111, N-((3-(4-amino-3-(4-((5-fluoro-2-methoxybenzamido)methyl)phenyl)-1H-pyrazolo[3,4-d]pyrimidin-1-yl)cyclopentyl)methyl)-N-methyl-1H-1,2,4-triazole-1-carboxamide] | ≤ 1 | ≤ 1
12 | Cc1[nH]c2c(C(N)=O)cc(F)c(N3CCC4(CC3)CCN4C(=O)n3cncn3)c2c1C [Compound 142, 4-(1-(1H-1,2,4-triazole-1-carbonyl)-1,7-diazaspiro[3.5]nonan-7-yl)-5-fluoro-2,3-dimethyl-1H-indole-7-carboxamide] | ≤ 1 | ≤ 1
13 | NC(=O)c1c(-c2ccc(Oc3ccccc3)cc2)nn2c1NCCC2[C@@H]1CCCN1C(=O)n1cncn1 (stereo partly drawn) [Compound 280, 7-((S)-1-(1H-1,2,4-triazole-1-carbonyl)pyrrolidin-2-yl)-2-(4-phenoxyphenyl)-4,5,6,7-tetrahydropyrazolo[1,5-a] pyrimidine-3-carboxamide] | > 1 | ≤ 1
14 | COc1ccc(F)cc1C(=O)NCc1ccc(-c2nn(C(Cc3ccccc3)CN(C)C(=O)n3cncn3)c3ncnc(N)c23)cc1 (centres unmarked) [Compound 237, N-(2-(4-amino-3-(4-((5-fluoro-2-methoxybenzamido)methyl)phenyl)-1H-pyrazolo[3,4-d]pyrimidin-1-yl)-3-phenylpropyl)-N-methyl-1H-1,2,4-triazole-1-carboxamide] | > 1 | > 1
15 | COc1ccc(F)cc1C(=O)NCc1ccc(-c2nn(CC3CCCC3N(C)C(=O)n3cncn3)c(N)c2C(N)=O)cc1 (centres unmarked) [Compound 294, N-(2-((5-amino-4-carbamoyl-3-(4-((5-fluoro-2-methoxybenzamido)methyl)phenyl)-1H-pyrazol-1-yl)methyl)cyclopentyl)-N-methyl-1H-1,2,4-triazole-1-carboxamide] | ≤ 1 | ≤ 1
16 | COc1ccc(F)cc1C(=O)NCc1ccc(-c2nn(CCC3CCCCN3C(=O)n3cncn3)c3ncnc(N)c23)cc1 (centres unmarked) [Compound 146] | ≤ 1 | ≤ 1

Next, values leading:

Row | IC50 (BTK wildtype protein) [µM] | IC50 (BTK C481S protein) [µM] | Structure (SMILES)
17 | > 1 | > 1 | CN(C(=O)n1cncn1)C1CCC2CNc3c(C(N)=O)c(-c4ccc(Oc5ccccc5)cc4)nn3C2C1 (centres unmarked) [Compound 234, 8-(N-methyl-1H-1,2,4-triazole-1-carboxamido)-2-(4-phenoxyphenyl)-4,5,5a,6,7,8,9,9a-octahydro-pyrazolo[1,5-a]quinazoline-3-carboxamide]
18 | > 1 | > 1 | COc1ccc(F)cc1C(=O)NCc1ccc(-c2nn(C(CC3CCC3)CN(C)C(=O)n3cncn3)c3ncnc(N)c23)cc1 (centres unmarked) [Compound 139, N-(2-(4-amino-3-(4-((5-fluoro-2-methoxybenzamido)methyl)phenyl)-1H-pyrazolo[3,4-d]pyrimidin-1-yl)-3-cyclobutylpropyl)-N-methyl-1H-1,2,4-triazole-1-carboxamide]
19 | ≤ 1 | ≤ 1 | Cc1[nH]c2c(C(N)=O)cc(F)c(N3CCC(N(C)C(=O)n4cncn4)C3)c2c1C (centres unmarked) [Compound 128, 5-fluoro-2,3-dimethyl-4-(3-(N-methyl-1H-1,2,4-triazole-1-carboxamido)pyrrolidin-1-yl)-1H-indole-7-carboxamide]
20 | > 1 | > 1 | CN(C(=O)n1cncn1)C1CCCN(c2ncnc3[nH]ccc23)C1 (centres unmarked) [Compound 192, N-(1-(7H-pyrrolo[2,3-d]pyrimidin-4-yl)piperidin-3-yl)-N-methyl-1H-1,2,4-triazole-1-carboxamide]
21 | ≤ 1 | ≤ 1 | COc1ccc(F)cc1C(=O)NCc1ccc(-c2nn([C@@H]3CCC[C@H](N(C)C(=O)n4cncn4)C3)c(N)c2C(N)=O)cc1 (relative stereo) [Compound 284, N-((1S,3R)-3-(5-amino-4-carbamoyl-3-(4-((5-fluoro-2-methoxy-benzamido)methyl)phenyl)-1H-pyrazol-1-yl)cyclohexyl)-N-methyl-1H-1,2,4-triazole-1-carboxamide]
22 | ≤ 1 | ≤ 1 | CC(CN(C)C(=O)n1cncn1)C1CCNc2c(C(N)=O)c(-c3ccc(Oc4ccccc4)cc3)nn21 (centres unmarked) [Compound 308, 7-(1-(N-methyl-1H-1,2,4-triazole-1-carboxamido)propan-2-yl)-2-(4-phenoxyphenyl)-4,5,6,7-tetrahydropyrazolo[1,5-a] pyrimidine-3-carboxamide]
23 | ≤ 1 | ≤ 1 | COc1ccc(F)cc1C(=O)NCc1ccc(-c2nn(C[C@@H]3CCCN3C(=O)n3cncn3)c3ncnc(N)c23)cc1 [Compound 251, (S)-N-(4-(1-((1-(1H-1,2,4-triazole-1-carbonyl)pyrrolidin-2-yl)methyl)-4-amino-1H-pyrazolo[3,4-d]pyrimidin-3-yl)benzyl)-5-fluoro-2-methoxybenzamide]
24 | ≤ 1 | ≤ 1 | CC(CC1CCNc2c(C(N)=O)c(-c3ccc(Oc4ccccc4)cc3)nn21)N(C)C(=O)n1cncn1 (centres unmarked) [Compound 309, 7-(2-(N-methyl-1H-1,2,4-triazole-1-carboxamido)propyl)-2-(4-phenoxyphenyl)-4,5,6,7-tetrahydro-pyrazolo[1,5-a]pyrimidine-3-carboxamide]
25 | ≤ 1 | > 1 | CNc1c(C(N)=O)c(-c2ccc(Oc3ccccc3)cc2)nn1C[C@@H]1CCCCN1C(=O)n1cncn1 [Compound 238, (S)-1-((1-(1H-1,2,4-triazole-1-carbonyl)piperidin-2-yl)methyl)-5-(methylamino)-3-(4-phenoxyphenyl)-1H-pyrazole-4-carboxamide]
